Data as given in patent US5124347A, “3-5-ditertiarybutylphenyl-4-hydroxymethylidene derivatives of 1,3-dihydro-2H-indole-2-ones as antiinflammatory agents” (Warner-Lambert Co., priority 1991, dated 1992).
Where two headings read alike, the source gives them in different places.

Columns and labels:
[1] = target: T1, 5-lipoxygenase (Rattus norvegicus, UniProt P12527); assay: ARBL whole cell 5-lipoxygenase assay (RBL-1 cells, inhibition of LTB4 formation); type: cell-based; conditions: calcium ionophore A23187 (5 μM)
T1 construct: host or cells: RBL-1 (rat basophilic leukemia)
T1 sequence (P12527 1-673): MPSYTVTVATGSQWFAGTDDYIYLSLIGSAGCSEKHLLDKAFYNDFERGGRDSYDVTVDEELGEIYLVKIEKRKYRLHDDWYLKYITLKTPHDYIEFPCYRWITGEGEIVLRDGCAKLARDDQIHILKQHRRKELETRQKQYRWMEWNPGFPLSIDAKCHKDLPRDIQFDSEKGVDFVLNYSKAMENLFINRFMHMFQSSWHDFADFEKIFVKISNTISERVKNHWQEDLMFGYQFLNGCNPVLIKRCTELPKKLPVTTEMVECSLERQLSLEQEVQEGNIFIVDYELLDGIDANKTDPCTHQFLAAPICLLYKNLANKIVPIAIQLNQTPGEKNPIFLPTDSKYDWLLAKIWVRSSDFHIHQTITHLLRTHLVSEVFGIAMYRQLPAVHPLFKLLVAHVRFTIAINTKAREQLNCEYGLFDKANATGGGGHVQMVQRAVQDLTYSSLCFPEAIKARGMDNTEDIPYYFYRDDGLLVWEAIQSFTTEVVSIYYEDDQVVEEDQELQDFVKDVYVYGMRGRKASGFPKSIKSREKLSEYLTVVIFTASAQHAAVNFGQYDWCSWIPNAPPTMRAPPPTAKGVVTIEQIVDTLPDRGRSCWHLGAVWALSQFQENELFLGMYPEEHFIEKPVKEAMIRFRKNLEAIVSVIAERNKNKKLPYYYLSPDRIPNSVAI
Protocol: (§1) ARBL/ARBC WHOLE CELL 5-LIPOXYGENASE AND CYCLOOXYGENASE ASSAYS
(§2) The rat basophilic leukemia cell line (RBL-1) was obtained from the American Type Culture Collection (Rockville, Md.).
(§3) Radioimmunoassay (RIA) kits of LTB4 and PGF2α were obtained from Amersham (Arlington Heights, Ill.) and Seragen (Boston, Mass.), respectively.
(§4) All tissue culture media were obtinaed from GIBCO (Grand Island, N.Y.).
(§5) RBL-1 cells are grown in suspension culture in Eagle's minimum essential medium supplemented with 12% fetal bovine serum at 37° C. in an incubator supplied with air-5% carbon dioxide. Cells are harvested by centrifugation. They are washed with cold phosphate-buffered saline, pH 7.4 (PBS; NaCl, 7.1 g; Na2 HPO4, 1.15 g; KH2 PO4, 0.2 g; and KCl, 0.2 g/L). Cells are finally suspended in PBS containing 1.0 mM calcium at a density of 2×10^6 cells/mL. Cells are incubated […] test agent (in DMSO) (1% DMSO is without effect on arachidonic acid metabolism) for 10 minutes at room temperature. Calcium ionophore A23187 (5 μM) is added and cells are incubated for 7 minutes at 37° C. The reaction is stopped by chilling the tubes on ice for 10 minutes. Cells are separated by centrifugation and the supernatant is stored at -20° C. Aliquots (100 μL) are anlyzed for LTB4 and PGF2α using radioimmunoassay kits as provided by the supplier.
(§6) Table 1 contains biochemical data for compounds of formula I obtained from this whole cell assay as amount of inhibition at 10 μM or IC50 s which are calculated as the concentration of a test compound in micromoles (μM) causing 50% inhibition of LTB4 or PGF2α formation.

[2] = target: T2, cyclooxygenase (Rattus norvegicus, UniProt Q63921); assay: ARBC whole cell cyclooxygenase assay (RBL-1 cells, inhibition of PGF2α formation); type: cell-based; conditions: calcium ionophore A23187 (5 μM)
T2 construct: host or cells: RBL-1 (rat basophilic leukemia)
T2 sequence (Q63921 27-602): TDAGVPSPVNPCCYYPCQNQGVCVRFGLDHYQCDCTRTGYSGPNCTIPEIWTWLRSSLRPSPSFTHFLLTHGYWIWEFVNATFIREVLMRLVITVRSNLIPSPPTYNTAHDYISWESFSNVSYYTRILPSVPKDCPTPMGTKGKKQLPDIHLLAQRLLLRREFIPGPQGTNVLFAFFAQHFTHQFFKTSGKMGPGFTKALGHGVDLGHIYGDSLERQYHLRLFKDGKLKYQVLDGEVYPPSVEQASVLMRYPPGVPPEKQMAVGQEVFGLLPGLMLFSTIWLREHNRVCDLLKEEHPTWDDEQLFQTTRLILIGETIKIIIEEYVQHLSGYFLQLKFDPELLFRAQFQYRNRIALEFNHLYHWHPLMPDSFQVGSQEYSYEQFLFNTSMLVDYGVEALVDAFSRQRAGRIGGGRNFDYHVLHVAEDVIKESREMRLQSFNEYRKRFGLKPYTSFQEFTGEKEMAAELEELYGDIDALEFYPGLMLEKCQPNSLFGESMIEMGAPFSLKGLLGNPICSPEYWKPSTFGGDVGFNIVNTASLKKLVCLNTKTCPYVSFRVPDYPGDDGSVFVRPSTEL
Protocol: as §1, §2, §3, §4, §5, §6

[3] = system: Mycobacterium-Induced Rat Footpad Edema; assay: Mycobacterium-Induced Rat Footpad Edema Assay (MFE); type: in vivo; conditions: at 10 m/k, dosed one hour before Mycobacterium and Days 1 and 2, 72 hours
Protocol: Mycobacterium - Induced Rat Footpad Edema Assay (MFE): Protocol Mycobacterium butyricum (5 mg/ml) is suspended in paraffin oil by sonication for ten minutes in an ice bath. Footpad edema is induced on Day 0 by injecting 0.1 ml of the Mycobacterium mixture into the left hindpaw of lightly anesthetized rats. Swelling in the injected hindpaw is determined by mercury plethysmography 72 hours after injection. Groups of rats are treated with test compounds (suspended in 0.5% hydroxypropyl methylcellulose with 0.2% Tween-80) or vehicle one hour before Mycobacterium injection and on Days 1 and 2. Inhibition of swelling is determined by comparing the change in hindpaw volume in compound- and vehicle-treated rats. An ID40 (the dose at which swelling is inhibited by 40%) is calculated by probit analysis. Table 1 also contains biochemical data for compounds of formula I obtained from the CFE and MFE assays.

[4] = system: Carrageenan-Induced Rat Foot Paw Edema; assay: Carrageenan-Induced Rat Foot Paw Edema-2 (CFE-2) Assay; type: in vivo; conditions: at 10 m/k, dosed one hour before carrageenan, edema at five hours
Protocol: Carrageenan-Induced Rat Foot Paw Edema-2 (CFE-2) Assay: Protocol
Carrageenan solution (1% w/v) is prepared by dissolving 100 mg carrageenan (Marine Colloidal Div., Springfield N.J.) in 10 ml of sterile saline (0.9%) solution (travenol). The solution is vortexed for 30 to 45 minutes. Animals are dosed with compound one hour before carrageenan challenge. Foot paw edema is induced by injecting 0.10 ml of the 1% carrageenan subcutaneously into the plantar portion of the right hind paw of each rat under light anesthesia. Initial foot paw volume is measured immediately following carrageenan challenge using mercury plethysmography (Buxco Electronics). Edema is measured five hours after carrageenan. The difference between the five-hour and the initial paw volume is expressed as delta edema. The delta edema for each test group of animals is used to calculate the percent inhibition of edema achieved by the compound at the test dose compared with the vehicle control group. The ID40 (the dose at which swelling is inhibited by 40%) is calculated by probit analysis for the dose at which 40 percent inhibition occurs.
Table 1 also contains biochemical data for compounds of formula I obtained from the CFE and MFE assays.

[5] = read-out: ARBC, inhibition of PGF2α (class symbol N)
[6] = read-out: ARBC, inhibition of PGF2α

Row | inhibition at 10 µM [1] [%] | inhibition at 10 µM [2, 5] [%] | Compound | further results
1 |  |  | CC(C)(C)c1cc(/C=C2\C(=O)Nc3ccccc32)cc(C(C)(C)C)c1O [Example 1, 3-[[3,5-bis(1,1-dimethylethyl)-4-hydroxyphenyl]methylene]1,3,-dihydro-2H-indole-2-one, (Z)-] | IC50 [1]: 930 nM; IC50 [2]: 1500 nM; MFE, inhibition of swelling [3]: 42%
2 | 100 | < 40 | Cc1ccc2c(c1)/C(=C/c1cc(C(C)(C)C)c(O)c(C(C)(C)C)c1)C(=O)N2 [Example 2, 3-[[3,5-Bis(1,1-dimethylethyl)-4-hydroxyphenyl]-methylene]-1,3-dihydro-5-methyl-2H-indole-2-one, (Z)] | 
3 | 100 |  | CC(C)(C)c1cc(/C=C2\C(=O)N(C(N)=O)c3ccccc32)cc(C(C)(C)C)c1O [Example 3] | inhibition at 10 µM [2, 6]: 32%
4 | 100 |  | CN1C(=O)/C(=C\c2cc(C(C)(C)C)c(O)c(C(C)(C)C)c2)c2ccccc21 [Example 4] | inhibition at 10 µM [2, 6]: 30%
5 |  |  | COc1cccc2c1NC(=O)/C2=C\c1cc(C(C)(C)C)c(O)c(C(C)(C)C)c1 [Example 5, 3-[[3,5-bis(1,1-dimethylethyl)-4-hydroxyphenyl]-methylene]-1,3-dihydro-7-methoxy-2H-indol-2-one, (Z)-] | IC50 [1]: 430 nM; CFE, inhibition of edema [4]: 43%; IC50 [2]: 6070 nM; MFE, inhibition of swelling [3]: 33%
6 | 100 | < 40 | CCOC(=O)c1ccc2c(c1)/C(=C/c1cc(C(C)(C)C)c(O)c(C(C)(C)C)c1)C(=O)N2 [Example 6, 3-[[3,5-bis(1,1-dimethylethyl)-4-hydroxyphenyl]-methylene]-2,3-dihydro-2-oxo-1H-indole-5-carboxylic acid, ethyl ester (Z)-] | 
7 | 100 | < 40 | Cc1cccc2c1NC(=O)/C2=C\c1cc(C(C)(C)C)c(O)c(C(C)(C)C)c1 [Example 7] | 
8 | 100 | < 40 | COc1ccc2c(c1)/C(=C/c1cc(C(C)(C)C)c(O)c(C(C)(C)C)c1)C(=O)N2C [Example 8, 3-[[3,5-bis(1,1-dimethylethyl)-4-hydroxyphenyl]methylene]-1,3-dihydro-5-methoxy-1-methyl-2H-indole-2-one, (Z)-] | 
9 | 48 | < 40 | CC(C)(C)c1cc(/C=C2\C(=O)Nc3cccc(Cl)c32)cc(C(C)(C)C)c1O [Example 9, 3-[[3,5-bis(1,1-dimethylethyl)-4-hydroxyphenyl]methylene]-4-chloro-1,3-dihydro-2H-indole-2-one, (Z)-] | 
10 | 100 | < 40 | Cc1cccc2c1/C(=C/c1cc(C(C)(C)C)c(O)c(C(C)(C)C)c1)C(=O)N2 [Example 10, 3-[[3,5-bis(1,1-dimethylethyl)-4-hydroxyphenyl]methylene]-1,3-dihydro-4-methyl-2H-indole-2-one, (Z)-] | 
11 | 100 | < 40 | CC(C)(C)c1cc(/C=C2\C(=O)Nc3ccc(C(=O)O)cc32)cc(C(C)(C)C)c1O [Example 12, 3-[[3,5-bis(1,1-dimethylethyl)-4-hydroxyphehyl]methylene]-2,3-dihydro-2-oxo-1H-indole-5-carboxylic acid, (Z)-] | 
